Measured values published in ChEMBL document CHEMBL6109059, “Synthesis and biofilm inhibitory activity of cyclic dinucleotide analogues prepared with macrocyclic ribose-phosphate skeleton” (2025).
Calls of active or inactive are those of the source. No cut-off for these calls is given here.

Assays:
[1] = system: Escherichia coli; assay: Inhibition of biofilm formation in Escherichia coli DH5alpha at 156 uM measured after 24 hrs by crystal violet staining based assay relative to control; type: functional; details: DH5-alpha
[2] = system: Staphylococcus aureus; assay: Inhibition of biofilm formation in Staphylococcus aureus NBRC13276 at 156 uM measured after 24 hrs by crystal violet staining based assay relative to control; type: functional
[3] = system: Pseudomonas aeruginosa; assay: Inhibition of biofilm formation in Pseudomonas aeruginosa NBRC13275 at 156 uM measured after 6 hrs by crystal violet staining based assay relative to control; type: functional
[4] = system: Escherichia coli; assay: Potency index, ratio of compound effect to c-di-GMP effect on inhibition of biofilm formation in Escherichia coli DH5alpha; type: functional
[5] = system: Escherichia coli; assay: Antibacterial activity against Escherichia coli DH5alpha; type: functional, organism-based
[6] = system: Staphylococcus aureus; assay: Antibacterial activity against Staphylococcus aureus NBRC13276; type: functional, organism-based
[7] = system: Pseudomonas aeruginosa; assay: Antibacterial activity against Pseudomonas aeruginosa NBRC13275; type: functional, organism-based

Molecule O=P1(O)OC[C@H]2O[C@@H](n3cc(-c4cc(F)cc(F)c4)nn3)[C@H](O)[C@@H]2OP(=O)(O)OC[C@H]2O[C@@H](n3cc(-c4cc(F)cc(F)c4)nn3)[C@H](O)[C@@H]2O1 has an inhibition at 156 µM [1] of 45.8%, an inhibition at 156 µM [2] of 8.24% and an inhibition at 156 µM [3] of 47.3%. The Ratio [4] was 2, the Activity [5] was “inactive” and the Activity [6] was “inactive”. The Activity [7] was “inactive”.

Molecule O=P1(O)OC[C@H]2O[C@@H](n3cc(-c4ccc(F)c(F)c4)nn3)[C@H](O)[C@@H]2OP(=O)(O)OC[C@H]2O[C@@H](n3cc(-c4ccc(F)c(F)c4)nn3)[C@H](O)[C@@H]2O1 has an inhibition at 156 µM [1] of 24.4%, an inhibition at 156 µM [2] of 15.9% and an inhibition at 156 µM [3] of 51.4%. The Ratio [4] was 2, the Activity [5] was “inactive” and the Activity [6] was “inactive”. The Activity [7] was “inactive”.

O=P1(O)OC[C@H]2O[C@@H](n3cc(-c4ccccc4)nn3)[C@H](O)[C@@H]2OP(=O)(O)OC[C@H]2O[C@@H](n3cc(-c4ccccc4)nn3)[C@H](O)[C@@H]2O1 was tested, and the inhibition at 156 µM [1] was 39.9%, the inhibition at 156 µM [2] was 24.1% and the inhibition at 156 µM [3] was 44.2%. For the same molecule, the Ratio [4] was 2, the Activity [5] was “inactive” and the Activity [6] was “inactive”. The Activity [7] was “inactive”.

For Nc1nc2c(ncn2[C@@H]2O[C@@H]3COP(=O)(O)O[C@H]4[C@@H](O)[C@H](n5cnc6c(=O)[nH]c(N)nc65)O[C@@H]4COP(=O)(O)O[C@H]3[C@H]2O)c(=O)[nH]1, the inhibition at 156 µM [1] was 12.5% and the inhibition at 156 µM [3] was 52.9%.

Molecule O=P1(O)OC[C@H]2O[C@@H](n3cc(-c4ccc(Br)cc4)nn3)[C@H](O)[C@@H]2OP(=O)(O)OC[C@H]2O[C@@H](n3cc(-c4ccc(Br)cc4)nn3)[C@H](O)[C@@H]2O1 has an inhibition at 156 µM [1] of 35.1%, an inhibition at 156 µM [2] of 21.2% and an inhibition at 156 µM [3] of 46%. The Ratio [4] was 2, the Activity [5] was “inactive” and the Activity [6] was “inactive”. The Activity [7] was “inactive”.

O=P1(O)OC[C@H]2O[C@@H](n3cc(-c4cccc(F)c4)nn3)[C@H](O)[C@@H]2OP(=O)(O)OC[C@H]2O[C@@H](n3cc(-c4cccc(F)c4)nn3)[C@H](O)[C@@H]2O1 gave an inhibition at 156 µM [1] of 30.6%, an inhibition at 156 µM [2] of 7.15% and an inhibition at 156 µM [3] of 57.7%. The Ratio [4] was 2, the Activity [5] was “inactive” and the Activity [6] was “inactive”. For the same molecule, the Activity [7] was “inactive”.

O=P1(O)OC[C@H]2O[C@@H](n3cc(-c4ccccc4F)nn3)[C@H](O)[C@@H]2OP(=O)(O)OC[C@H]2O[C@@H](n3cc(-c4ccccc4F)nn3)[C@H](O)[C@@H]2O1 gave an inhibition at 156 µM [1] of 39.1%, an inhibition at 156 µM [2] of 16% and an inhibition at 156 µM [3] of 59.4%. The Ratio [4] was 2, the Activity [5] was “inactive” and the Activity [6] was “inactive”. For the same molecule, the Activity [7] was “inactive”.

Molecule O=P1(O)OC[C@H]2O[C@@H](n3cc(-c4ccc(F)cc4)nn3)[C@H](O)[C@@H]2OP(=O)(O)OC[C@H]2O[C@@H](n3cc(-c4ccc(F)cc4)nn3)[C@H](O)[C@@H]2O1 has an inhibition at 156 µM [1] of 25.1%, an inhibition at 156 µM [2] of 4.86% and an inhibition at 156 µM [3] of 57.9%. The Ratio [4] was 2, the Activity [5] was “inactive” and the Activity [6] was “inactive”. The Activity [7] was “inactive”.

O=P1(O)OC[C@H]2O[C@@H](n3cc(-c4ccncc4)nn3)[C@H](O)[C@@H]2OP(=O)(O)OC[C@H]2O[C@@H](n3cc(-c4ccncc4)nn3)[C@H](O)[C@@H]2O1 showed an inhibition at 156 µM [1] of 34.2%, an inhibition at 156 µM [2] of 39.6% and an inhibition at 156 µM [3] of 21.9%. For the same molecule, the Ratio [4] was 2, the Activity [5] was “inactive” and the Activity [6] was “inactive”. For the same molecule, the Activity [7] was “inactive”.

COc1ccc(-c2cn([C@@H]3O[C@@H]4COP(=O)(O)O[C@H]5[C@@H](O)[C@H](n6cc(-c7ccc(OC)cc7)nn6)O[C@@H]5COP(=O)(O)O[C@H]4[C@H]3O)nn2)cc1 was tested, and the inhibition at 156 µM [1] was 36.7%, the inhibition at 156 µM [2] was 19% and the inhibition at 156 µM [3] was 53.3%. For the same molecule, the Ratio [4] was 2, the Activity [5] was “inactive” and the Activity [6] was “inactive”. The Activity [7] was “inactive”.
